Test results from ChEMBL document CHEMBL3885861, “Open TG-GATES”.

Species on record: Rattus norvegicus
Experiment: Open TG-GATES - Regimen: Single
Type: toxicity, organism-based, Sprague-Dawley
Set-up: regimen Single, gender Male, age 6 weeks
Details: in vivo, po, 100 mg/kg, route gavage, dose level High; for APTT / Bas / Eos / Fbg / Ht / Lym / MCHC / MCV / Mono / PT / Plat / RBC / Ret / WBC: tissue Blood; for KIDNEY_L / KIDNEY_R / KIDNEY_TOTAL: tissue Kidney; for LIVER: tissue Liver; for ALP / ALT / AST / BUN / CRE / DBIL / GLC / IP / K / LDH / PL / RALB / TBIL / TC / TP / gamma-GTP: tissue Plasma

For `CN(C)CCCN1c2ccccc2CCc2ccccc21` [IMIPRAMINE], the TERMINAL_BW (3 h) was 202.6 g, the APTT (3 h) was 16.3 s and the Bas (3 h) was 0%. It also gave an Eos (3 h) of 0.5%, a Fbg (3 h) of 283.8 mg/dL and a Ht (3 h) of 40.4%. The Lym (3 h) was 72.5%, the MCHC (3 h) was 32.8% and the MCV (3 h) was 63.6 fL. For the same molecule, the Mono (3 h) was 3.2%, the PT (3 h) was 15.8 s and the Plat (3 h) was 110.1 x10_4/uL. It also gave an RBC (3 h) of 635.8 x10_4/ul, a Ret (3 h) of 8.6% and a WBC (3 h) of 79.2 x10_2/uL. The KIDNEY_L (3 h) was 0.9 g, the KIDNEY_R (3 h) was 0.9 g and the KIDNEY_TOTAL (3 h) was 1.8 g. It also gave an LIVER (3 h) of 9.4 g, an ALP (3 h) of 1336.2 IU/L and an ALT (3 h) of 45 IU/L. For the same molecule, the AST (3 h) was 73.5 IU/L, the BUN (3 h) was 6.8 mg/dL and the CRE (3 h) was 0.1 mg/dL. For the same molecule, the DBIL (3 h) was 0.0125 mg/dL, the GLC (3 h) was 190.8 mg/dL and the IP (3 h) was 10 mg/dL. It also gave a K (3 h) of 3.9 meq/L, an LDH (3 h) of 61 IU/L and a PL (3 h) of 138 mg/dL. It also gave an RALB (3 h) of 2.5 g/dL, a TBIL (3 h) of 0.07 mg/dL and a TC (3 h) of 69 mg/dL. The TP (3 h) was 5.3 g/dL, the gamma-GTP (3 h) was 1.2 IU/L and the TERMINAL_BW (6 h) was 200.3 g. It also gave an APTT (6 h) of 15.9 s, a Bas (6 h) of 0% and an Eos (6 h) of 0.8%. The Fbg (6 h) was 299.4 mg/dL, the Ht (6 h) was 42.4% and the Lym (6 h) was 71.2%. For the same molecule, the MCHC (6 h) was 32.2%, the MCV (6 h) was 66.2 fL and the Mono (6 h) was 3%. For the same molecule, the PT (6 h) was 15.8 s, the Plat (6 h) was 108.9 x10_4/uL and the RBC (6 h) was 641.6 x10_4/ul. The Ret (6 h) was 8.3%, the WBC (6 h) was 74.4 x10_2/uL and the KIDNEY_L (6 h) was 0.9 g. The KIDNEY_R (6 h) was 0.9 g, the KIDNEY_TOTAL (6 h) was 1.8 g and the ALP (6 h) was 1251.8 IU/L. It also gave an ALT (6 h) of 37 IU/L, an AST (6 h) of 64.2 IU/L and a BUN (6 h) of 6.4 mg/dL. The CRE (6 h) was 0.1 mg/dL, the DBIL (6 h) was 0.01 mg/dL and the GLC (6 h) was 182 mg/dL. For the same molecule, the IP (6 h) was 9.9 mg/dL, the K (6 h) was 4 meq/L and the LDH (6 h) was 62.8 IU/L. It also gave an RALB (6 h) of 2.5 g/dL, a TBIL (6 h) of 0.062 mg/dL and a TC (6 h) of 83.8 mg/dL. For the same molecule, the TP (6 h) was 5.4 g/dL, the gamma-GTP (6 h) was 1.2 IU/L and the TERMINAL_BW (9 h) was 199.8 g. The APTT (9 h) was 16.1 s, the Bas (9 h) was 0.2% and the Eos (9 h) was 0.8%. For the same molecule, the Fbg (9 h) was 309.4 mg/dL, the Ht (9 h) was 42% and the Lym (9 h) was 73%. It also gave an MCHC (9 h) of 32.2%, an MCV (9 h) of 66.8 fL and a Mono (9 h) of 2.4%. For the same molecule, the PT (9 h) was 15.8 s, the Plat (9 h) was 111.5 x10_4/uL and the RBC (9 h) was 629.2 x10_4/ul. For the same molecule, the Ret (9 h) was 8.8%, the WBC (9 h) was 70.8 x10_2/uL and the KIDNEY_L (9 h) was 0.9 g. It also gave a KIDNEY_R (9 h) of 0.9 g, a KIDNEY_TOTAL (9 h) of 1.8 g and an LIVER (9 h) of 8.3 g. For the same molecule, the ALP (9 h) was 1131.2 IU/L, the ALT (9 h) was 35.6 IU/L and the AST (9 h) was 63.6 IU/L. It also gave a BUN (9 h) of 5.2 mg/dL, a CRE (9 h) of 0.1 mg/dL and a GLC (9 h) of 179.2 mg/dL. It also gave an IP (9 h) of 10.2 mg/dL, a K (9 h) of 4.1 meq/L and an LDH (9 h) of 59.2 IU/L. For the same molecule, the RALB (9 h) was 2.5 g/dL, the TBIL (9 h) was 0.056 mg/dL and the TC (9 h) was 80.8 mg/dL. It also gave a TP (9 h) of 5.4 g/dL, a gamma-GTP (9 h) of 1 IU/L and a TERMINAL_BW (24 h) of 198.2 g. It also gave an APTT (24 h) of 16 s, a Bas (24 h) of 0% and an Eos (24 h) of 0.6%. It also gave a Fbg (24 h) of 293.2 mg/dL, a Ht (24 h) of 42.6% and a Lym (24 h) of 82.6%. The MCHC (24 h) was 32.4%, the MCV (24 h) was 65.1 fL and the Mono (24 h) was 2%. The PT (24 h) was 16.6 s, the Plat (24 h) was 116.4 x10_4/uL and the RBC (24 h) was 655.2 x10_4/ul. The Ret (24 h) was 7.3%, the WBC (24 h) was 49 x10_2/uL and the KIDNEY_L (24 h) was 0.9 g. It also gave a KIDNEY_R (24 h) of 0.9 g, a KIDNEY_TOTAL (24 h) of 1.8 g and an LIVER (24 h) of 8.1 g. The ALP (24 h) was 1350.6 IU/L, the ALT (24 h) was 35.4 IU/L and the AST (24 h) was 61 IU/L. The BUN (24 h) was 12.8 mg/dL, the CRE (24 h) was 0.2 mg/dL and the DBIL (24 h) was 0.02 mg/dL. The GLC (24 h) was 176.4 mg/dL, the IP (24 h) was 8.2 mg/dL and the K (24 h) was 4.5 meq/L. It also gave an LDH (24 h) of 62.8 IU/L, a PL (24 h) of 137.8 mg/dL and an RALB (24 h) of 2.6 g/dL. It also gave a TBIL (24 h) of 0.062 mg/dL, a TC (24 h) of 83.2 mg/dL and a TP (24 h) of 5.6 g/dL. For the same molecule, the gamma-GTP (24 h) was 1.2 IU/L.
